What was measured:
Experiment in all cases: Test I pre-/postemergence, mixtures of Cpd. No. 20 with saflufenacil or pyroxasulfone
Format in all cases: in vivo
[1] = system: mare's tail (ERICA; Conyza canadensis)
Description: (§1) This test evaluated the effect of mixtures of Cpd. No. 20 with saflufenacil or pyroxasulfone on several plant species. Seeds of plant species selected from corn (ZEAMD; Zea mays, cv. ‘Pioneer 1184’), soybean (GLXMA; Glycine max, cv. Pioneer 35T58), giant foxtail (SETFA; Setaria faberi), palmer amaranth (AMAPA; Amaranthus palmeri), common waterhemp (AMATU; Amaranthus rudis), mare's tail (ERICA; Conyza canadensis), and common ragweed (AMBEL; Ambrosia artemisiifolia) were planted in pots containing Tama Silt Loam soil and treated preemergence with a directed soil spray using test chemicals formulated in a non-phytotoxic solvent mixture which included a surfactant.
(§2) At the same time, plants selected from these crop and weed species were planted in pots containing Redi-Earth® planting medium (Scotts Company, 14111 Scottslawn Road, Marysville, Ohio 43041) comprising spaghnum peat moss, vermiculite, wetting agent and starter nutrients and treated postemergence with test chemicals formulated in the same manner. Plants ranged in height from 2 to 10 cm and were in the one- to two-leaf stage for the postemergence treatment. Treated plants and untreated controls were maintained in a greenhouse for approximately 14-21 d, after which time all treated plants were compared to untreated controls and visually evaluated for injury. Plant response ratings, summarized in Tables 11 to 14, are based on a 0 to 100 scale where 0 is no effect and 100 is complete control. A dash (-) response means no test result. Test results are presented as a mean of 4 reps.

[2] = system: common ragweed (AMBEL; Ambrosia artemisiifolia)
Description: as §1, §2

[3] = system: palmer amaranth (AMAPA; Amaranthus palmeri)
Description: as §1, §2

[4] = system: giant foxtail (SETFA; Setaria faberi)
Description: as §1, §2

[5] = system: corn (ZEAMD; Zea mays, cv. ‘Pioneer 1184’)
Description: as §1, §2

[6] = system: common waterhemp (AMATU; Amaranthus rudis)
Description: as §1, §2

[7] = system: soybean (GLXMA; Glycine max, cv. Pioneer 35T58)
Description: as §1, §2

Structure (SMILES): Cn1nc(C(F)(F)F)c(CS(=O)(=O)C2=NOC(C)(C)C2)c1OC(F)F [Pyroxasulfone, pyroxasulfone, reference compound]
- ERICA plant response rating, 0 to 100 scale ([1]; postemergence, 4 g a.i./ha): 0
- ERICA plant response rating, 0 to 100 scale ([1]; postemergence, 8 g a.i./ha): 0
- ERICA plant response rating, 0 to 100 scale ([1]; preemergence, 4 g a.i./ha): 79
- ERICA plant response rating, 0 to 100 scale ([1]; preemergence, 8 g a.i./ha): 100
- AMBEL plant response rating, 0 to 100 scale ([2]; postemergence, 4 g a.i./ha): 0
- AMBEL plant response rating, 0 to 100 scale ([2]; postemergence, 8 g a.i./ha): 24
- AMBEL plant response rating, 0 to 100 scale ([2]; preemergence, 4 g a.i./ha): 0
- AMBEL plant response rating, 0 to 100 scale ([2]; preemergence, 8 g a.i./ha): 0
- AMAPA plant response rating, 0 to 100 scale ([3]; postemergence, 4 g a.i./ha): 15
- AMAPA plant response rating, 0 to 100 scale ([3]; postemergence, 8 g a.i./ha): 0
- AMAPA plant response rating, 0 to 100 scale ([3]; preemergence, 4 g a.i./ha): 0
- AMAPA plant response rating, 0 to 100 scale ([3]; preemergence, 8 g a.i./ha): 38
- SETFA plant response rating, 0 to 100 scale ([4]; postemergence, 4 g a.i./ha): 0
- SETFA plant response rating, 0 to 100 scale ([4]; postemergence, 8 g a.i./ha): 6
- SETFA plant response rating, 0 to 100 scale ([4]; preemergence, 4 g a.i./ha): 76
- SETFA plant response rating, 0 to 100 scale ([4]; preemergence, 8 g a.i./ha): 98
- ZEAMD plant response rating, 0 to 100 scale ([5]; postemergence, 4 g a.i./ha): 0
- ZEAMD plant response rating, 0 to 100 scale ([5]; postemergence, 8 g a.i./ha): 0
- ZEAMD plant response rating, 0 to 100 scale ([5]; preemergence, 4 g a.i./ha): 0
- ZEAMD plant response rating, 0 to 100 scale ([5]; preemergence, 8 g a.i./ha): 0
- AMATU plant response rating, 0 to 100 scale ([6]; postemergence, 4 g a.i./ha): 0
- AMATU plant response rating, 0 to 100 scale ([6]; postemergence, 8 g a.i./ha): 0
- AMATU plant response rating, 0 to 100 scale ([6]; preemergence, 4 g a.i./ha): 5
- AMATU plant response rating, 0 to 100 scale ([6]; preemergence, 8 g a.i./ha): 45
- GLXMA plant response rating, 0 to 100 scale ([7]; postemergence, 4 g a.i./ha): 0
- GLXMA plant response rating, 0 to 100 scale ([7]; postemergence, 8 g a.i./ha): 15
- GLXMA plant response rating, 0 to 100 scale ([7]; preemergence, 4 g a.i./ha): 0
- GLXMA plant response rating, 0 to 100 scale ([7]; preemergence, 8 g a.i./ha): 0

Reference: US12435044B2, “Pyridazinone herbicides and pyridazinone intermediates used to prepare a herbicide” (FMC Corporation, priority 2018, dated 2025)
